Measured values taken from ChEMBL document CHEMBL4130367, “Click chemistry-based synthesis and anticancer activity evaluation of novel C-14 1,2,3-triazole dehydroabietic acid hybrids” (Eur J Med Chem, 2017).
Calls of active or inactive are those of the source. The calls are words filed in the database; no cut-off is given here.

Tests used:
[1] = Selectivity index, ratio of IC50 for human HL7702 cells to IC50 for human A549 cells; assay type: toxicity; details: HL7702 cells versus A549 cells, read-out: Ratio IC50
[2] = test system: SK-OV-3; assay: Cytotoxicity against human SKOV3 cells assessed as reduction in cell viability after 72 hrs by MTT assay; assay type: functional, cell-based; details: SK-OV-3, 72 h
[3] = Metabolic stability in rat liver microsomes assessed as parent compound remaining after 60 mins in presence of NADPH by HPLC analysis; assay type: ADME, microsome; details: read-out: Stability
[4] = test system: PC-3; assay: Cytotoxicity against human PC3 cells assessed as reduction in cell viability after 72 hrs by MTT assay; assay type: functional, cell-based; details: PC-3, 72 h
[5] = Metabolic stability in mouse liver microsomes assessed as parent compound remaining after 180 mins in presence of NADPH by HPLC analysis; assay type: ADME, microsome; details: read-out: Stability
[6] = test system: NCI/ADR-RES; assay: Growth inhibition of human MCF7/ADR cells at 2.5 to 5 uM after 72 hrs by MTT assay relative to control; assay type: functional
[7] = Cytotoxicity against human […] cells assessed as reduction in cell viability after 72 hrs by MTT assay; assay type: functional, cell-based
[8] = test system: MDA-MB-231; assay: Induction of apoptosis in human MDA-MB-231 cells assessed as early apoptotic cells at 0.1 uM after 24 hrs by Annexin V-FITC/propidium iodide staining based flow cytometry (reference value: 2.33%); assay type: functional
[9] = Metabolic stability in rat liver microsomes assessed as parent compound remaining after 150 mins in presence of NADPH by HPLC analysis; assay type: ADME, microsome; details: read-out: Stability
[10] = test system: MDA-MB-231; assay: Induction of apoptosis in human MDA-MB-231 cells assessed as downregulation of Bcl2 protein expression after 48 hrs by Western blot analysis; assay type: functional, cell-based
[11] = test system: MDA-MB-231; assay: Downregulation of NFkB p65 protein expression in human MDA-MB-231 cells up to 1 uM after 48 hrs by Western blot analysis; assay type: functional, cell-based
[12] = Selectivity index, ratio of IC50 for human HL7702 cells to IC50 for human LNCAP cells; assay type: toxicity; details: HL7702 cells versus LNCAP cells, read-out: Ratio IC50
[13] = test system: A549; assay: Cytotoxicity against human A549 cells assessed as reduction in cell viability after 72 hrs by MTT assay; assay type: functional, cell-based; details: A549, 72 h
[14] = Octanol-water partition coefficient, log P of the compound; assay type: physicochemical
[15] = test system: MDA-MB-231; assay: Induction of apoptosis in human MDA-MB-231 cells assessed as cleaved PARP protein expression up to 1 uM after 48 hrs by Western blot analysis; assay type: functional, cell-based
[16] = Selectivity index, ratio of IC50 for human HL7702 cells to IC50 for human HCT116 cells; assay type: toxicity; details: HL7702 cells versus HCT116 cells, read-out: Ratio IC50
[17] = Selectivity index, ratio of IC50 for human HL7702 cells to IC50 for human SMCC7721 cells; assay type: toxicity; details: HL7702 cells versus SMCC7721 cells, read-out: Ratio IC50
[18] = test system: MDA-MB-231; assay: Induction of apoptosis in human MDA-MB-231 cells assessed as dead cells at 1 uM after 24 hrs by Annexin V-FITC/propidium iodide staining based flow cytometry (reference value: 2.15%); assay type: functional
[19] = Metabolic stability in rat liver microsomes assessed as parent compound remaining after 90 mins in presence of NADPH by HPLC analysis; assay type: ADME, microsome; details: read-out: Stability
[20] = Metabolic stability in mouse liver microsomes assessed as parent compound remaining after 90 mins in presence of NADPH by HPLC analysis; assay type: ADME, microsome; details: read-out: Stability
[21] = Metabolic stability in rat liver microsomes assessed as parent compound remaining after 180 mins in presence of NADPH by HPLC analysis; assay type: ADME, microsome; details: read-out: Stability
[22] = test system: L02; assay: Cytotoxicity against human HL7702 cells assessed as reduction in cell viability after 72 hrs by MTT assay; assay type: cell-based; details: L02, 72 h
[23] = test system: MDA-MB-231; assay: Cytotoxicity against human MDA-MB-231 cells assessed as reduction in cell viability after 72 hrs by MTT assay; assay type: functional, cell-based; details: MDA-MB-231, 72 h
[24] = test system: MDA-MB-231; assay: Induction of apoptosis in human MDA-MB-231 cells assessed as upregulation of Bax protein expression after 48 hrs by Western blot analysis; assay type: functional, cell-based
[25] = Metabolic stability in dog liver microsomes assessed as parent compound remaining after 60 mins in presence of NADPH by HPLC analysis; assay type: ADME, Canis lupus familiaris, microsome; details: read-out: Stability
[26] = Selectivity index, ratio of IC50 for HFF cells to IC50 for human A549 cells; assay type: toxicity; details: HFF cells versus A549 cells, read-out: Ratio IC50
[27] = Metabolic stability in mouse liver microsomes assessed as parent compound remaining after 150 mins in presence of NADPH by HPLC analysis; assay type: ADME, microsome; details: read-out: Stability
[28] = test system: SK-BR-3; assay: Cytotoxicity against human SKBR3 cells assessed as reduction in cell viability after 72 hrs by MTT assay; assay type: functional, cell-based; details: SK-BR-3, 72 h
[29] = Selectivity index, ratio of IC50 for HFF cells to IC50 for human SMCC7721 cells; assay type: toxicity; details: HFF cells versus SMCC7721 cells, read-out: Ratio IC50
[30] = test system: MDA-MB-231; assay: Induction of apoptosis in human MDA-MB-231 cells assessed as cleaved caspase-3 protein expression up to 1 uM after 48 hrs by Western blot analysis; assay type: functional, cell-based
[31] = Half life in dog liver microsomes in presence of NADPH by HPLC analysis; assay type: ADME, Canis lupus familiaris, microsome
[32] = Metabolic stability in mouse liver microsomes assessed as parent compound remaining after 120 mins in presence of NADPH by HPLC analysis; assay type: ADME, microsome; details: read-out: Stability
[33] = Half life in mouse liver microsomes in presence of NADPH by HPLC analysis; assay type: ADME, microsome
[34] = test system: HFF; assay: Cytotoxicity against HFF cells assessed as reduction in cell viability after 72 hrs by MTT assay; assay type: cell-based; details: Homo sapiens
[35] = Selectivity index, ratio of IC50 for HFF cells to IC50 for human HCT116 cells; assay type: toxicity; details: HFF cells versus HCT116 cells, read-out: Ratio IC50
[36] = Selectivity index, ratio of IC50 for HFF cells to IC50 for human LNCAP cells; assay type: toxicity; details: HFF cells versus LNCAP cells, read-out: Ratio IC50
[37] = test system: A549; assay: Effect on microtubule formation in human A549 cells assessed as morphological changes at 1 to 10 umol after 18 hrs; assay type: cell-based
[38] = Half life in rat liver microsomes in presence of NADPH by HPLC analysis; assay type: ADME, microsome
[39] = Selectivity index, ratio of IC50 for HFF cells to IC50 for human U251 cells; assay type: toxicity; details: HFF cells versus U251 cells, read-out: Ratio IC50
[40] = Metabolic stability in dog liver microsomes assessed as parent compound remaining after 120 mins in presence of NADPH by HPLC analysis; assay type: ADME, Canis lupus familiaris, microsome; details: 2 h
[41] = test system: NCI/ADR-RES; assay: Growth inhibition of human MCF7/ADR cells after 72 hrs by MTT assay; assay type: functional, cell-based
[42] = test system: U-251; assay: Cytotoxicity against human U251 cells assessed as reduction in cell viability after 72 hrs by MTT assay; assay type: functional, cell-based; details: U-251, 72 h
[43] = Metabolic stability in mouse liver microsomes assessed as parent compound remaining after 30 mins in presence of NADPH by HPLC analysis; assay type: ADME, microsome; details: read-out: Stability

For `COC(=O)[C@]1(C)CCC[C@]2(C)c3ccc(C(C)C)c(NC(=O)Cn4cc(-c5cccc(NC(=O)OC(C)(C)C)c5)nn4)c3CC[C@@H]12`, the selectivity ratio [1] was 6.1, the IC50 [2] was 1200 nM and the remaining at 1 h [3] was 79.3%. For the same compound, the IC50 [4] was 900 nM, the remaining at 3 h [5] was 11.1% and the “growth inhibition (GI)” value [6] was over 50%. It also gave an IC50 [7] of 1100 nM, an Activity [8] of 4.32% and a remaining at 2.5 h [9] of 42.1%. The Activity [10] was “Active”, the Activity [11] was “Active” and the selectivity ratio [12] was 12.4. The IC50 [13] was 1300 nM, the logP [14] was 6.07 and the Activity [15] was “Active”. The selectivity ratio [16] was 7.9, the selectivity ratio [17] was 7.6 and the Activity [18] was 7.01%. For the same compound, the remaining at 1.5 h [19] was 70.5%, the remaining at 1.5 h [20] was 61.3% and the remaining at 3 h [21] was 31%. The IC50 [22] was 7800 nM, the IC50 [23] was 700 nM and the Activity [24] was “Active”. The remaining at 1 h [25] was 59%, the selectivity ratio [26] was 4.2 and the remaining at 2.5 h [27] was 25.7%. The IC50 [28] was 900 nM, the selectivity ratio [29] was 5.2 and the Activity [30] was “Active”. For the same compound, the t1/2 [31] was 1.16 h, the remaining at 2 h [32] was 43.7% and the half-life [33] was 1.76 h. For the same compound, the IC50 [34] was 5400 nM, the selectivity ratio [35] was 5.4 and the selectivity ratio [36] was 8.6. For the same compound, the Activity [37] was “inactive”, the half-life [38] was 2.19 h and the selectivity ratio [39] was 3.1. The Stability [40] was 4.8%, the IC50 [41] was 900 nM and the “growth inhibition (GI)” value [41] was “Dose-dependent effect”. For the same compound, the IC50 [42] was 1800 nM and the remaining at 0.5 h [43] was 87.9%.
